The source of these data is article PMC6336494 (Nature communications, 2015).

Each structure is given as a SMILES string.

The IC50 is the concentration that inhibits the measured activity by half. Read a low IC50 as inhibition by little substance.

This assay addresses myeloperoxidase (MPO) (Homo sapiens, UniProt P05164). In words: guaiacol/H2O2 peroxidase activity assay with purified human MPO. It counts as biochemical.

myeloperoxidase (MPO), sequence (P05164 165-273): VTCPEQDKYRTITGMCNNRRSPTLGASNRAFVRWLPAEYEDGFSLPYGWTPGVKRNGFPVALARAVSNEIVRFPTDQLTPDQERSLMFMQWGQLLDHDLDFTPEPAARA
myeloperoxidase (MPO), sequence (P05164 279-745): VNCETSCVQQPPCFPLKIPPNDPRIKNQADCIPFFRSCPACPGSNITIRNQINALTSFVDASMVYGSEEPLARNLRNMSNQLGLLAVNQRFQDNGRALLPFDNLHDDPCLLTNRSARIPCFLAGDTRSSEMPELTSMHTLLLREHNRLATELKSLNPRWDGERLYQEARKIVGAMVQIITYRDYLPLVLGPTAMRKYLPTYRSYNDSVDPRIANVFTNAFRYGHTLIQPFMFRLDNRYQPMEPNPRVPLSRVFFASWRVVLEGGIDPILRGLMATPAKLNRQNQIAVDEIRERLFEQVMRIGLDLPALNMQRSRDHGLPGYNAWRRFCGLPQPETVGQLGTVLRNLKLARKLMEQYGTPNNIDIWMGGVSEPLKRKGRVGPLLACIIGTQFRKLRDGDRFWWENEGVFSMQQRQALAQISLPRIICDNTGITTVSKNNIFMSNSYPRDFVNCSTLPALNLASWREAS

`O=C(N[C@H]1COC(=O)[C@@H](NC(=O)c2cccc(O)c2O)COC(=O)[C@@H](NC(=O)c2cccc(O)c2O)COC1=O)c1cccc(O)c1O` [enterobactin]: the IC50 was roughly 1000 nM.
